Experimental data from US20260365634A1, “HERBICIDAL PYRAZOLE COMPOUNDS” (SYNGENTA CROP PROTECTION AG, priority 2022, published 2026).

How the values were obtained:
Assay type in all cases: in vivo
Conditions in all cases: 250 g/ha, evaluated after 13 days
Setaria faberi (SETFA) [1] = test: Post-emergence herbicidal glasshouse test
Method: (§1) Seeds of a variety of test species are sown in standard soil in pots Amaranthus palmeri (AMAPA), Amaranthus retoflexus (AMARE), Echinochloa crus-galli (ECHCG), Ipomoea hederacea (IPOHE), Setaria faberi (SETFA). After cultivation for one day (pre-emergence) or after 8 days cultivation (post-emergence) under controlled conditions in a glasshouse (at 24/16 °C, day/night; 14 hours light; 65% humidity), the plants are sprayed with an aqueous spray solution derived from the formulation of the technical active ingredient in acetone/water (50:50) solution containing 0.5% Tween 20 (polyoxyethelyene sorbitan monolaurate, CAS RN 9005-64-5). Compounds are applied at 250 g/ha unless otherwise stated. The test plants are then grown in a glasshouse under controlled conditions in a glasshouse (at 24/16 °C, day/night; 14 hours light; 65% humidity) and watered twice daily. After 13 days for pre and post-emergence, the test is evaluated for the percentage damage caused to the plant. The biological activities are shown in the following table on a five-point scale (5=81-100%; 4=61-80%; 3=41-60%; 2=21-40%; 1=0-20%).

[2] = tested on: Echinochloa crus-galli (ECHCG); test: Post-emergence herbicidal glasshouse test
Method: as §1

[3] = tested on: Amaranthus retoflexus (AMARE); test: Post-emergence herbicidal glasshouse test
Method: as §1

[4] = tested on: Ipomoea hederacea (IPOHE); test: Post-emergence herbicidal glasshouse test
Method: as §1

[5] = tested on: Amaranthus palmeri (AMAPA); test: Post-emergence herbicidal glasshouse test
Method: as §1

Setaria faberi (SETFA) [6] = test: Pre-emergence herbicidal glasshouse test
Method: as §1

[7] = tested on: Echinochloa crus-galli (ECHCG); test: Pre-emergence herbicidal glasshouse test
Method: as §1

[8] = tested on: Amaranthus retoflexus (AMARE); test: Pre-emergence herbicidal glasshouse test
Method: as §1

[9] = tested on: Ipomoea hederacea (IPOHE); test: Pre-emergence herbicidal glasshouse test
Method: as §1

[10] = tested on: Amaranthus palmeri (AMAPA); test: Pre-emergence herbicidal glasshouse test
Method: as §1

SMILES	percentage damage caused to the plant (five-point scale), SETFA (Setaria faberi (SETFA) [1])	percentage damage caused to the plant (five-point scale), ECHCG [2]	percentage damage caused to the plant (five-point scale), AMARE [3]	percentage damage caused to the plant (five-point scale), IPOHE [4]	percentage damage caused to the plant (five-point scale), AMAPA [5]	percentage damage caused to the plant (five-point scale), SETFA (Setaria faberi (SETFA) [6])	percentage damage caused to the plant (five-point scale), ECHCG [7]	percentage damage caused to the plant (five-point scale), AMARE [8]	percentage damage caused to the plant (five-point scale), IPOHE [9]	percentage damage caused to the plant (five-point scale), AMAPA [10]
CC(C)(C#N)CCCn1nc(C(F)(F)F)cc1Cc1ncc(Cl)cn1 [Compound 1.019]	1 (0-20%)	1 (0-20%)	1 (0-20%)	1 (0-20%)	1 (0-20%)	1 (0-20%)	1 (0-20%)	1 (0-20%)	1 (0-20%)	1 (0-20%)
CCCCn1nc(C(F)(F)Cl)cc1Cc1ncc(Cl)cn1 [Compound 1.020, 2-[[2-butyl-5-[chloro(difluoro)methyl]pyrazol-3-yl]methyl]-5-chloro-pyrimidine]	1 (0-20%)	2 (21-40%)	5 (81-100%)	2 (21-40%)	4 (61-80%)	4 (61-80%)	4 (61-80%)	5 (81-100%)	2 (21-40%)	5 (81-100%)
C=CCCn1nc(C(F)F)cc1Cc1ncc(Cl)cn1 [Compound 1.021]	1 (0-20%)	1 (0-20%)	3 (41-60%)	1 (0-20%)	2 (21-40%)	3 (41-60%)	2 (21-40%)	5 (81-100%)	1 (0-20%)	5 (81-100%)
N#CC1(Cn2nc(C(F)(F)F)cc2Cc2ncc(Cl)cn2)CC1 [Compound 1.022]	1 (0-20%)	1 (0-20%)	4 (61-80%)	4 (61-80%)	4 (61-80%)	4 (61-80%)	3 (41-60%)	5 (81-100%)	5 (81-100%)	4 (61-80%)
CS(=O)(=O)CCn1nc(C(F)F)cc1Cc1ncc(Cl)cn1 [Compound 1.023]	1 (0-20%)	1 (0-20%)	2 (21-40%)	3 (41-60%)	2 (21-40%)	1 (0-20%)	1 (0-20%)	1 (0-20%)	2 (21-40%)	1 (0-20%)
FC(F)c1cc(Cc2ncc(Cl)cn2)n(CCBr)n1 [Compound 1.025]	1 (0-20%)	1 (0-20%)	1 (0-20%)	1 (0-20%)	1 (0-20%)	1 (0-20%)	2 (21-40%)	4 (61-80%)	1 (0-20%)	4 (61-80%)
C=CCn1nc(C(F)F)cc1Cc1ncc(Cl)cn1 [Compound 1.026]	1 (0-20%)	1 (0-20%)	1 (0-20%)	1 (0-20%)	1 (0-20%)	1 (0-20%)	1 (0-20%)	1 (0-20%)	1 (0-20%)	1 (0-20%)
N#CC1(Cn2nc(C(F)F)cc2Cc2ccc(Cl)cc2)CC1 [Compound 1.027]	1 (0-20%)	1 (0-20%)	1 (0-20%)	1 (0-20%)	1 (0-20%)	2 (21-40%)	1 (0-20%)	1 (0-20%)	2 (21-40%)	1 (0-20%)
FC(F)(F)c1cc(Cc2ncc(Cl)cn2)n(C2CCCC2)n1 [Compound 1.028]	2 (21-40%)	2 (21-40%)	4 (61-80%)	3 (41-60%)	2 (21-40%)	5 (81-100%)	2 (21-40%)	5 (81-100%)	1 (0-20%)	5 (81-100%)
CC(C)(C#N)CCCn1nc(C(F)(F)F)cc1Cc1ncc(Cl)cn1 [Compound 1.029]	2 (21-40%)	3 (41-60%)	4 (61-80%)	3 (41-60%)	3 (41-60%)	3 (41-60%)	3 (41-60%)	5 (81-100%)	5 (81-100%)	4 (61-80%)
CCSCCn1nc(C(F)F)cc1Cc1ncc(Cl)cn1 [Compound 1.030]	4 (61-80%)	2 (21-40%)	5 (81-100%)	5 (81-100%)	5 (81-100%)	1 (0-20%)	1 (0-20%)	1 (0-20%)	1 (0-20%)	1 (0-20%)
